The source of these data is patent US20240050389A1, “TREATMENT OF IDIOPATHIC PULMONARY FIBROSIS” (priority 2020, published 2024).

For data set [1], the system named is primary human lung fibroblasts. As to the kind of experiment: Seahorse mitochondrial stress test (OCR) of human lung fibroblasts cultured with itaconate. The settings on record: IPF HLFs (increased vs healthy HLFs), 24 h incubation with itaconate. The format is cell-based.
The test system of data set [2] is primary human lung fibroblasts. As to the kind of experiment: JULI-Stage proliferation assay. The format is cell-based. The settings on record: 10 mM itaconate, over 72 h. Here is the method: (§1) Primary human lung fibroblasts were seeded in 96-well plate for proliferation assay (5,000 per well) or 24-well plate for wound healing assay and serum-starved overnight prior to treatment with itaconate in complete DMEM for 48-72 hrs. For wound healing assays, a standardised scratch was applied in each well using a p10 pipette tip. Images were taken in JULI-Stage system (NanoEntek) at three to five positions per well every 30 minutes and proliferation rate or wound closure were calculated using JU LI-Stage software (NanoEntek).
(§2) Human lung fibroblasts were cultured in media alone or supplemented with itaconate and assessed after 24 h-72 h. […] To assess the ability of itaconate to limit fibrosis related functions of HLFs, proliferation and wound healing assays were carried out in the presence or absence of itaconate.

In data set [3] the test system is primary human lung fibroblasts. As to the kind of experiment: JULI-Stage wound healing (scratch) assay. The format is cell-based. The settings on record: healthy HLFs, 10 mM itaconate, over a 48 h period. The method, then:
as §1, §2

In data set [4] the test system is healthy human primary lung fibroblasts. Nature of the data set: Real-time PCR gene expression in fibroblasts cultured with itaconate. The format is cell-based. The settings on record: healthy HLFs, 10 mM itaconate, 24 h. An excerpt:
(§3) Primary human lung fibroblasts were isolated from lung resections of patients undergoing lung cancer surgery or lung transplantation performed after informed consent as approved by an external Research Ethics Committee (REC 15/SC0101) according to the Royal Brompton Hospital protocol (Royal Brompton & Harefield NHS Foundation Trust, 2016) and cultured in complete Dulbecco's modified eagle medium (10% FBS, 100 U/ml penicillin/streptomycin) (Gibco, ThermoFisher) to passage four. Human bronchial epithelial cells (HBE) were obtained from bronchial brushings during the bronchoscopy after informed consent and approved by an external Research Ethics Committee for ILD subjects (Ref. Nos. 10/H0720/12 and 15/SC0101). HBEs were cultured in bronchia.1 e thelial growth (BEGM) medium (Lonza) to passage four. MACS enriched human AM were cultured in complete RPMI (10% FBS, 100U/ml penicillin/streptomycin, Gibco, ThermoFisher) for 24 hrs. Fibroblasts and AM were cultured with 10 mM itaconate in complete medium for 24hrs prior to cell lysis in RLT buffer (QIAGEN) containing 1% 2-Mercaptoethanol (Sigma Aldrich).
For orientation: Real-time PCR tracks product formation cycle by cycle.

Data set [5] in a line: Tolerability of inhaled (oropharyngeal) itaconate in naïve mice. Type of data set: in vivo. The settings on record: inhaled dose of 0.25 mg/kg. The method, then:
FIG. 18: Exogenous itaconate is anti-fibrotic. (A-C) Total BAL count, percentage of eosinophils (B) and Percentage of neutrophils (C) of PBS or itaconate dosed mice (0.25-10 mg/kg, oropharyngeal), 24 h post administration (n=4 per group). Data presented as mean±S.D.; Significance was tested by ordinary one-way ANOVA with Sidak's multiple comparison test, **P<0.01.
In order to address whether inhaled itaconate is anti-fibrotic, it was first determined a dose of itaconate that would not provoke an inflammatory response in murine airways. […] We administered inhaled (OPN) itaconate or PBS twice a week for two weeks during the fibrotic phase (starting at day 10 post bleomycin) to WT mice (FIG. 7A); this dosing strategy is in accordance with the American Thoracic guidelines for preclinical assessment of potential therapies for IPF (Jenkins et al., 2017). Subsequently pathology, fibrosis and lung function at d21 post bleomycin were assessed.

Data set [6] has as its system bleomycin induced pulmonary fibrosis. Nature of the data set: Therapeutic inhaled itaconate in bleomycin mouse model. The format is in vivo. The settings on record: 0.25 mg/kg oropharyngeal twice a week for two weeks from day 10 post bleomycin, WT mice.
Description: Unless otherwise stated, all mice were between 8 and 12 weeks of age. Mice were housed in specific-pathogen-free conditions and given food and water ad libitum. All procedures were approved by the United Kingdom Home Office and conducted in strict accordance with the Animals (Scientific Procedures) Act 1986. […] All surgery was performed under ketamine and sodium pentobarbital anaesthesia and all efforts were made to minimize suffering. Mice were administered either 0.05U (1U/ml solution dissolved in PBS) of bleomycin sulphate (Sigma Aldrich) or 50 μl PBS via the oropharyngeal route at day 0 and culled after 7, 21 or 42 days. For therapeutic experiments mice were administered 0.25 mg/kg (1 mM solution dissolved in PBS, 50 μl) itaconic acid (Sigma Aldrich) or PBS via the oropharyngeal route twice a week, beginning 10 days after of bleomycin administration.
Lung function measurements were performed using the Flexivent system (Scireq, Montreal, Canada). After induction of anaesthesia with an i.p. injection of Pentobarbitone (50 mg/Kg, Sigma, UK) and i.m. injection of Ketamine (200 mg/Kg) (Fortdodge Animal Health Ltd, Southampton, UK), mice were tracheotomised and attached to the Flexivent ventilator via a blunt-ended 19-gauge needle. Mice were ventilated using the following settings; tidal volume of 7 ml/Kg body weight, 150 breaths/minute; positive end-expiratory pressure approximately 2 cm H2O. Standardisation of lung volume history was done by performing two deep inflations. Subsequently, measurements of dynamic resistance, dynamic elastance and dynamic compliance were determined using the snapshot-150 perturbation, a single frequency sinusoidal waveform. Resultant data was fitted using multiple linear regression to the single compartment model to determine the above parameters.
Paraffin-embedded sections (4 μm) of lungs (apical lobe) were stained with hematoxylin/eosin (H&E) and Sirius Red. For assessment of fibrosis, the semi-quantitative Ashcroft scoring system was used as previously described (Hubner et al., 2008, Biotechniques, 44(4): 507-11). All scoring and measurements were performed by 3-5 blinded independent observers.
Total RNA was reverse transcribed into cDNA using the High Capacity cDNA Reverse Transcription kit (Life Technologies), or GoScript reverse transcription system (Promega) for AMs, according to manufacturer's instructions. Real-time PCR was performed using fast-qPCR mastermix (Life technologies) on a Viia-7 instrument (Applied Biosciences) with Taqman primers for murine acod1, col-1α1, col3α1, col4α1, fn1, mmp2 or human acod1, cd163, fn1, IL-16, mmp1, mmp9 using actb (Life Technologies) as housekeeping gene.
In a further data set the test system is AMs from IPF patients. Nature of the data set: Culture of AMs from IPF patients with itaconate. Type of data set: cell-based, human. The settings on record: AMs from IPF patients cultured with itaconate.
Description: as §3
1×10^7 BAL cells were stained with anti-CD206 (Biolegend) and Human TruStain FcX block (Biolegend) for 15 minutes at 4° C. in 0.5% FBS/2 mM EDTA in PBS prior to incubation with MACS anti-Cy7 microbeads (Miltenyi Biotec) for 15 minutes at 4° C. […]

As to `C=C(CC(=O)O)C(=O)O` [itaconate, 2-methylidenebutanedioic acid], in data set [1], the maximal respiration entry is reported as “ameliorated” and the spare respiratory capacity result is given as “ameliorated”. Further, the proliferative capacity entry in data set [2] (HLFs from IPF patients) is “significantly reduced”. In addition, the proliferative capacity result in data set [2] (HLFs from healthy donors) is recorded as “significantly reduced”. In addition, in data set [3], the “ability to close a standardized wound” value is “decreased”. In data set [4], the “gene expression of FN-1” value is reported as “downregulated” and the “gene expression of IL-1β” value was “downregulated”. Further, in data set [5] (repeated oropharyngeal administration, naïve mice (data not shown)), the “tolerability (no inflammatory response in murine airways)” value is recorded as “well tolerated”. In data set [5] (single oropharyngeal administration, naïve mice), the “tolerability (no inflammatory response in murine airways)” value is on record as “well tolerated”. In data set [6] (d21), the “Ashcroft score based on Sirius red staining” value is “significantly ameliorated”, the “expression of Col4α1 (lung homogenate)” value was “significantly ameliorated” and the “expression of Fn1 (lung homogenate)” value is “significantly ameliorated”. In addition, in data set [6] (d21, FlexiVent), the lung airway compliance result is recorded as “significantly ameliorated” and the lung airway elastance entry is listed as “significantly ameliorated”. Further, in the data set on AMs from IPF patients, the “pro-fibrotic and pro-inflammatory pathways” value is given as “inhibits”.
